Ten compounds from ChEMBL document CHEMBL4814063, “Discovery of Diaminopyrimidine Carboxamide HPK1 Inhibitors as Preclinical Immunotherapy Tool Compounds” (ACS Med Chem Lett, 2021) can be followed below.

The nature of data set [1]: Apparent permeability in dog MDCK-II cells. The data set is classed as ADME, cell-based, Canis lupus familiaris.
Data set [2] is described as follows: Clearance in Wistar Han rat at 0.1 mg/kg, iv. Type of data set: ADME, organism-based. To be noted: in vivo.
Data set [3] can be described thus: MRT in C57BL/6 mouse at 10 mg/kg, po or 1 mg/kg, iv. The data set is classed as ADME, organism-based. To be noted: in vivo.
A short description of data set [4]: Metabolic stability in rat hepatocytes assessed as intrinsic clearance. Type of data set: ADME, cell-based, Hepatocyte.
Data set [5] in a line: Clearance in C57BL/6 mouse at 10 mg/kg, po or 1 mg/kg, iv. Type of data set: ADME, organism-based. As to conditions: in vivo.
Data set [6] can be described thus: Solubility of compound at pH 7. To be noted: buffer. The data set is classed as physicochemical.
A short description of data set [7]: Fraction unbound clearance in C57BL/6 mouse at 10 mg/kg, po or 1 mg/kg, iv. The data set is classed as ADME, organism-based. To be noted: in vivo.
A short description of data set [8]: Unbound clearance in Wistar Han rat at 0.1 mg/kg, iv. Type of data set: ADME, organism-based. As to conditions: in vivo.
Data set [9] can be described thus: MRT in Wistar Han rat at 0.1 mg/kg, iv. The data set is classed as ADME, organism-based. As to conditions: in vivo.
A short description of data set [10]: Solubility of compound at pH 2. Type of data set: physicochemical. As to conditions: buffer.
Data set [11] is described as follows: Oral bioavailability in C57BL/6 mouse at 10 mg/kg. Type of data set: ADME, organism-based. To be noted: in vivo.
Data set [12] can be described thus: Volume of distribution in C57BL/6 mouse at 10 mg/kg, po or 1 mg/kg, iv. The data set is classed as ADME, organism-based. As to conditions: in vivo.
Data set [13] in a line: Volume of distribution in Wistar Han rat at 0.1 mg/kg, iv. As to conditions: in vivo. The data set is classed as ADME, organism-based.
For data set [14], the system named is Dendritic cell. Briefly: […] in human monocyte derived dendritic cell assessed as increase in TNF-alpha production incubated for 24 hrs by ELISA. Type of data set: functional, cell-based.
The subject of data set [15] is Dendritic cell. Briefly: […] in human monocyte derived dendritic cell assessed as increase in IL-6 production incubated for 24 hrs by ELISA. Type of data set: functional, cell-based. Background: An ELISA detects its analyte on a solid surface through an enzyme-linked reagent.
Data set [16] can be described thus: AUC in C57BL/6 mouse at 100 mg/kg, po measured after 8 hrs. Details: route oral, dose 100 mg/kg, time 8 hrs. Type of data set: ADME, organism-based. To be noted: in vivo.

The structures appear in SMILES notation. Converted amounts (≈) assume the structure as drawn.

As usually defined, the Papp is a coefficient for how fast a substance crosses the barrier. One may read the MRT as a mean duration of stay, worked out from the concentration-time curve. The term solubility denotes how much of the substance goes into solution per volume. A higher solubility goes with much dissolved substance. By bioavailability is commonly meant dose-corrected exposure relative to a reference, in per cent. Lower therefore signals little systemic uptake. For `COc1cc2c(cc1Nc1ncc(C(N)=O)c(Nc3ccccc3)n1)CN(C)CC2`, in [1], the Papp was determined as 2.5 ×10⁻⁶ cm/s. The clearance in data set [2] worked out at 19 mL/min/kg; in data set [5] it was 46 mL/min/kg. The MRT in data set [3] turned out to be 72 min; in [9], 126 min. Also, in data set [4], the CLint stood at 70 µL/min/1e6 cells. Further, the solubility in data set [6] is 92 µM (≈ 37.2 µg/mL); in [10], 166 µM (≈ 67.1 µg/mL). For the same compound, the CL free in data set [7] turned out to be 2532 mL/min/kg; in data set [8] it was 415 mL/min/kg. The compound also registered a bioavailability in data set [11] of 17%.
Consider `COc1cc2c(cc1Nc1ncc(C(N)=O)c(Nc3ccccc3Br)n1)CN(C)CC2`, for which the Papp in [1] is 2.12 ×10⁻⁶ cm/s. In addition, in data set [4], the CLint came out at 33 µL/min/1e6 cells. In data set [6], the solubility was less than 2 µM.
On to `COc1cc2c(cc1Nc1ncc(C(N)=O)c(Nc3ccccc3[C@H](C)OC)n1)CN(C)CC2`, for which the Vd stood at 1 L/kg in data set [12] and 1.8 L/kg in [13]. In addition, in data set [1], the Papp was determined as 3.1 ×10⁻⁶ cm/s. Also, the figures for the clearance in [2] and in data set [5] were 56 mL/min/kg and 52 mL/min/kg, respectively. In addition, the MRT in data set [3] amounted to 19.8 min; in data set [9] it was 30 min. In addition, the figures for the CL free in data set [7] and in [8] were 2452 mL/min/kg and 2057 mL/min/kg, respectively. Further, the bioavailability in data set [11] came out at 9%.
Regarding `COc1cc2c(cc1Nc1ncc(C(N)=O)c(Nc3c(F)cccc3C(F)(F)F)n1)CN(C)CC2`, the results for the Vd in data set [12] and in data set [13] were 61 L/kg and 2 L/kg, respectively. In addition, the Papp in data set [1] stood at 2.9 ×10⁻⁶ cm/s. Also, the results for the clearance in [2] and in data set [5] were 28 mL/min/kg and 30 mL/min/kg, respectively. The MRT was 28.8 min in data set [3] and 78 min in data set [9]. Also, the Activity entry in the data set on Dendritic cell [14] and in the data set with Dendritic cell [15] was “Dose-Dependent Effect” in each case. Moreover, the CL free was 2170 mL/min/kg in [7] and 1529 mL/min/kg in [8]. Also, the bioavailability in [11] worked out at 13%.
Consider `COc1cc2c(cc1Nc1ncc(C(N)=O)c(NC3CCCC3)n1)CN(C)CC2`, for which, in data set [1], the Papp is 3.6 ×10⁻⁶ cm/s. Further, in [4], the CLint is 28 µL/min/1e6 cells. This compound also came in with a solubility in [6] of 7 µM (≈ 2.78 µg/mL).
Regarding `COc1cc2c(cc1Nc1ncc(C(F)(F)F)c(Nc3ccccc3)n1)CN(C)CC2`, the solubility in data set [6] was 96 µM (≈ 41.2 µg/mL); in data set [10], 157 µM (≈ 67.4 µg/mL).
For `COc1cc2c(cc1Nc1ncc(C)c(Nc3ccccc3)n1)CN(C)CC2`, the figures for the solubility in data set [6] and in data set [10] were 152 µM (≈ 57.1 µg/mL) and 179 µM (≈ 67.2 µg/mL), respectively.
In the case of `COc1cc2c(cc1Nc1nccc(Nc3ccccc3)n1)CN(C)CC2`, the solubility in [6] was 147 µM (≈ 53.1 µg/mL); in [10] it was 160 µM (≈ 57.8 µg/mL).
By AUC is commonly meant the area under the concentration-time curve, a measure of exposure. With `COc1cc2c(cc1Nc1ncc(C(N)=O)c(Nc3ccccc3CO)n1)CN(C)CC2`, the Vd stood at 29 L/kg in [12] and 65 L/kg in data set [13]. The same compound returned an exposure (AUC) in data set [16] of 102 µM·h. Also, the Papp in data set [1] came to 0.54 ×10⁻⁶ cm/s. Further, the clearance in data set [2] was found to be 88 mL/min/kg; in [5], 67 mL/min/kg. For the same compound, the MRT came to 39.6 min in data set [3] and 120 min in data set [9]. Moreover, the CL free turned out to be 792 mL/min/kg in [7] and 548 mL/min/kg in [8]. Moreover, the bioavailability in [11] was found to be 7.9%.
With `COc1cc2c(cc1Nc1ncc(C(N)=O)c(Nc3c(C)cccc3F)n1)CN(C)CC2`, in [1], the Papp came out at 2.78 ×10⁻⁶ cm/s. The CLint in [4] is 69 µL/min/1e6 cells. This compound yielded a solubility in data set [6] of 9 µM (≈ 3.93 µg/mL).
